From paper PMC2680961, “Homologous desensitization of signalling by the alpha (α) isoform of the human thromboxane A2 receptor: A specific role for nitric oxide signalling” (Biochimica et Biophysica Acta, 2007)

What was measured:
TPα^S331A = biological target: T1, TPα^S331A (Homo sapiens, UniProt P21731, S331A); test: [3H]SQ29,548 radioligand binding, Scatchard analysis, HEK.TPα^S331A
T1 construct: expressed in transfected cells
T1 sequence (P21731 1-343 S331A): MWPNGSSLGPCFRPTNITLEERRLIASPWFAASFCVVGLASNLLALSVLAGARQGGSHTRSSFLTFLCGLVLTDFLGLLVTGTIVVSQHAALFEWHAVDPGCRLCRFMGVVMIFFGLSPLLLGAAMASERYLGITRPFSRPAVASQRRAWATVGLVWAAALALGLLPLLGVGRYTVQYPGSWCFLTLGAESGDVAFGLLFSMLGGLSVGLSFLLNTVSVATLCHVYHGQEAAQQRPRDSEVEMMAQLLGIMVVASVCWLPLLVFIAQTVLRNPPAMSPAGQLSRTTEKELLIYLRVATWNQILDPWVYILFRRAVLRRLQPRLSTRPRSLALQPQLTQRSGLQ
Description: (§1) Cells were harvested by centrifugation at 500×g at 4 °C for 5 min and washed three times with ice-cold Ca^2+/Mg^2+-free phosphate-buffered saline (PBS). TP radioligand binding assays were carried out at 30 °C for 30 min in 100 μl reactions in the presence of 0–40 nM [^3H] […] Protein determinations were carried out using the Bradford assay.
(§2) Radioligand binding and Scatchard analysis data were analysed using GraphPad Prisim V4.0 programme (GraphPad Software Inc., San Diego CA, USA). Statistical analyses were carried out using the unpaired Student's t test using the Statworks Analysis Package. p-values ≤ 0.01 indicated statistically significant differences.

TPα^Δ336 = biological target: T2, TPα^Δ336 (Homo sapiens, UniProt P21731); test: [3H]SQ29,548 radioligand binding, Scatchard analysis, HEK.TPα^Δ336
T2 construct: expressed in transfected cells
T2 sequence (P21731 1-335): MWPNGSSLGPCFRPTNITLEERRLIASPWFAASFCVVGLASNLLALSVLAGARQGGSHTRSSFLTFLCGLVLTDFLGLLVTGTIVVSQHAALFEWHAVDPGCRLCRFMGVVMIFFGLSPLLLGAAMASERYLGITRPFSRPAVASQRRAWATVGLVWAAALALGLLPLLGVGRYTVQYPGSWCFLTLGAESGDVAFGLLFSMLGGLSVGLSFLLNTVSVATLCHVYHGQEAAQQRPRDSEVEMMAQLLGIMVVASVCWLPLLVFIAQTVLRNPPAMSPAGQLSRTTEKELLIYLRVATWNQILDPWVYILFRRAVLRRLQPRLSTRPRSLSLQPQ
Description: as §1, §2

TPα^S145,S331,T337A = test: Intracellular calcium mobilization, HEK.TPα^S145,S331,T337A cells; type: cell-based, human; details: data not shown
Description: Measurement of intracellular calcium mobilization ([Ca^2+]i) in FURA2/AM preloaded HEK 293 cell lines (2 × 10^6 cells/dish), each transiently co-transfected with pADVA (10 μg), and pCMV:Gαq (25 μg), was carried out as previously described. To investigate the effect of GRK2/βARK1 on TP-mediated [Ca^2+]i mobilization, HEK.TPα or HEK.TPβ cells (2 × 10^6 cells/dish) were co-transfected with pADVA (10 μg), pCMV:Gαq (25 μg) along with pRK5:βARK1^495–689 (25 μg), encoding a dominant negative form of GRK2/βARK1[39]. […] For each measurement of [Ca^2+]i mobilization, aliquots of cells were diluted to 0.825 × 10^6 cells/ml in HBSSHB, 1 mM CaCl2 and FURA2 fluorescence was recorded (2 ml aliquots of cells) at 37^ °C with gentle stirring with a Perkin Elmer-Cetus LS50-B spectrofluorometer at excitation wavelengths of 340 nm and 380 nm and emission wavelength of 510 nm, respectively.
Cells were stimulated with the TP agonist U46619 (1 μM) and changes in [Ca^2+]i mobilization were monitored as a function of time. […]
The vehicle had no effect on U46619-mediated [Ca^2+]i mobilization. Calibration of the signal was performed in each sample by adding 0.2% Triton X-100 to obtain the maximal fluorescence ratio (Rmax) and then 1 mM EGTA to obtain the minimal fluorescence ratio (Rmin). […]

`O=C(O)CCC/C=C\C[C@@H]1[C@H](CNNC(=O)Nc2ccccc2)[C@H]2CC[C@@H]1O2` [SQ29,548] was tested, and the “Bmax (pmol/mg protein ± S.E.M.)” value (TPα^S331A) was 4.00 ± 0.04 pmol/mg protein and the “Bmax (pmol/mg protein ± S.E.M.)” value (TPα^Δ336) was 4.43 ± 0.04 pmol/mg protein.

With `CCCCC[C@H](O)/C=C/[C@@H]1[C@@H](C/C=C\CCCC(=O)O)[C@H]2CO[C@@H]1C2` [U46619] the “secondary U46619 [Ca2+]i response relative to primary response” value (TPα^S145,S331,T337A) was 55%.
